Reference: patent publication US9238020B2, “Compositions comprising enzyme-cleavable phenol-modified tapentadol prodrug” (priority 2010, dated 2016)
Where two headings read alike, the source gives them in different places.

How the values were obtained:
[1] = biological target: T1, human μ-opioid receptor (Homo sapiens, UniProt P35372); assay: In vitro human μ-opioid receptor binding assay ([3H]DAMGO, recombinant HEK-293 cells); set-up: expressed in transfected cells; host or cells: HEK-293; settings: relative to tapentadol
Method: The general procedure follows the protocol described by J.-B. Wang, et al, 1994, FEBS Lett. 338, 217-222. More specifically, the assays included tapentadol or Compound TP-1 (which can be prepared as described in the examples herein) as well as recombinant HEK-293 cells expressing the human μ-opioid receptor on their cell surfaces, reference compound [d-Ala^2,N-Me-Phe^4,Gly^5−ol]-enkephalin (DAMGO), radioligand [^3H]DAMGO (0.5 nM) and non-specific ligand naloxone (10 uM). The reaction mixtures were incubated at 22° C. for 2 hr. The samples were then submitted to scintillation counting.
In these assays, the specific binding of a test compound to the receptor is defined as the difference between the total binding and the non-specific binding determined in the presence of an excess of unlabelled ligand. Results are expressed as a percent of control of specific binding and as a percent inhibition of control specific binding obtained in the presence of test compounds. The IC50 values (concentration of competing ligand required for 50% inhibition of [^3H]DAMGO binding), and Hill coefficients (nH) were determined by non-linear regression analysis of competition curves using Hill equation curve fitting.

[2] = Plasma and cerebrospinal fluid penetration following IV administration to rats; format: in vivo, rat; settings: for concentration at 2 min: male, Sprague Dawley, rat, in vivo, TP-1 10 mg/kg, tapentadol 4 mg/kg
Method: Compound TP-1 (which can be prepared as described in the examples herein) at a dose of 10 mg/kg, or tapentadol, at a dose of 4 mg/kg, were dissolved in saline and injected into the tail vein of 4 male Sprague Dawley rats. These doses represent approximately equimole amounts. After 2 minutes, the rats were anesthetized by carbon dioxide asphyxiation, blood samples were drawn and harvested for plasma by centrifugation at 5,400 rpm at 4° C. for 5 min, and 100 μl plasma was transferred from each sample into a fresh tube containing 2 μl of 50% formic acid. The CSF fluid was collected using a 22×1 inch gauge needle connected to polyurethane catheter type MRE-040 tubing (Braintree Scientific, Inc., Braintree, Mass.). The needle was inserted just below the nuchal crest at the area of the foramen magnum, and clear CSF fluid was collected into the catheter and transferred into a collection tube. The CSF samples were centrifuged at 5,400 rpm at 4° C. for 5 min, and 100 μl CSF fluid was transferred from each sample into a fresh tube. The plasma and CSF samples were immediately placed in dry ice and then stored in a −80° C. freezer until analysis by high performance liquid chromatography/mass spectrometry (HPLC/MS). In order to study Compound TP-1 and tapentadol plasma and CSF penetration over time, additional groups of 4 rats were administered compounds as described above and anesthetized at specified time points. Plasma and CSF were collected and analyzed as described above.
Results in Table 14 are reported, for each group of four rats, as mean concentrations of the indicated compounds in plasma or CSF. Table 14 also provides the plasma-to-CSF (plasma/CSF) partitioning coefficient, i.e., the ratio of concentration in the plasma to concentration in the CSF of the indicated compounds.

[3] = biological target: T1, human μ-opioid receptor; assay: In vitro human μ-opioid receptor agonist cellular functional assay (cAMP, CHO cells); format: cell-based; set-up: expressed in transfected cells; settings: CHO cells expressing human μ-opioid receptor, 37° C., 10 min
Method: The general procedure follows the protocol described by J.-B. Wang, et al, ibid. More specifically, the assay included as appropriate, Compound TP-1 or tapentadol and recombinant Chinese hamster ovary (CHO) cells expressing the human μ-opioid receptor on their cell surfaces. The control reaction included 1 μM DAMGO. The reaction mixtures were incubated at 37° C. for 10 min, and the reaction product was cyclic AMP (cAMP). The samples were submitted to homogeneous time resolved fluorescence (HTRF®). EC50 values (concentration producing a half-maximal specific response) were determined by non-linear regression fit using Hill plot software.

[4] = In vitro stability of Compound TP-1 to household chemicals and enzyme preparations; format: physicochemical
Method: Compound TP-1 (which can be prepared as described in the examples herein) was exposed at room temperature (RT) or 80° C. for either 1 or 24 hours (hr) to the following household chemicals: vodka (40% alcohol), baking soda (saturated sodium bicarbonate solution, pH 9), WINDEX® with Ammonia-D (pH 11) and vinegar (5% acetic acid). Compound TP-1 was also exposed to the following enzyme-containing compositions at RT for 1 or 24 hr: GNC® Super Digestive (2 capsules of GNC Super Digestive Enzymes dissolved in 5 mL of water), tenderizer (Adolf's meat tenderizer, primarily papain, dissolved in water to a concentration of 0.123 g/mL to approximate the concentration of a marinade given on the bottle label), and subtilisn (8 tablets of ULTRAZYME® contact lens cleaner (Advanced Medical Optics, Milpitas, Calif.) dissolved in 4 mL water). Samples were incubated as described and aliquots removed at 1 hr and 24 hr and stabilized by adding each to a solution of 50% or 100% of 85% phosphoric acid solution to achieve a final pH of less than or equal to pH 4. The stabilized aliquots were then diluted 4- to 6-fold with water, vortex-mixed and applied to HPLC.
The solid black bars indicate the percentage of Compound TP-1 remaining after exposure, and the lightly shaded bars with a black outline indicate the percentage conversion of Compound TP-1 to tapentadol.

T1 sequence (P35372 whole entry): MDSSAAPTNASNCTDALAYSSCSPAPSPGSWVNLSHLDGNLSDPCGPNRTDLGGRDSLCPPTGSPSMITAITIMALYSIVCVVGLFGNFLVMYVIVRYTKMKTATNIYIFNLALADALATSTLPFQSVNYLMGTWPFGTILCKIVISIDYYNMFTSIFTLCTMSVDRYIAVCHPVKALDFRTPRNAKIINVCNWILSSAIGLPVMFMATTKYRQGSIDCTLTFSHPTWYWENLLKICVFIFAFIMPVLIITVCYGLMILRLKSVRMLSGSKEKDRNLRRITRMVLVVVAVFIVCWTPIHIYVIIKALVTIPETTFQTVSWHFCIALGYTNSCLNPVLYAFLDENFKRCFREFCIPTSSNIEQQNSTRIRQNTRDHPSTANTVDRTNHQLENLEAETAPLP

In the case of `CC[C@@H](c1cccc(OC(=O)N(C)CCNC(=O)[C@H](CCCNC(=N)N)NC(=O)CC(=O)O)c1)[C@@H](C)CN(C)C` [Compound TP-1, N—[(S)-1-(2-{[3-((1R,2R)-3-dimethylamino-1-ethyl-2-methyl-propyl)-phenoxycarbonyl]-methyl-amino}-ethylcarbamoyl)-4-guanidino-butyl]-malonamic acid], the “affinity for the μ-opioid receptor, fold less than that of tapentadol” value [1] is reported as “at least 200 fold”, the “relative plasma/CSF partitioning coefficient of Compound TP-1 to tapentadol (fold less CSF-penetrant)” value ([2]; 671/10.4) is reported as “about 64 fold” and the concentration at 2 min ([2]; rats, IV, 2 minutes after dosing, read-out: Compound conc. in CSF) is reported as 65.3 ng/mL. The concentration at 2 min ([2]; rats, IV, 2 minutes after dosing, read-out: Compound conc. in Plasma) was 43800 ng/mL, the Plasma/CSF partitioning coefficient ([2]; rats, IV, 2 minutes after dosing, ratio of concentration in plasma to concentration in CSF) was 671 and the “agonist response in the μ-opioid receptor functional assay” value [3] was “weak response was seen at 100 μM”. The conversion to tapentadol ([4]; all other conditions (household chemicals at RT or 80° C., enzyme preparations at RT, 1 or 24 hr)) was “less than 10%” and the conversion to tapentadol ([4]; sodium bicarbonate at 80° C. or Windex at 80° C. for 24 hr) was 10-20%.
